Values after ≈ are worked out from the molar mass of the structure shown.

Holding throughout (assay type): cell-based
Assay [1] has as its system Staphylococcus epidermidis TB-302. The assay can be described thus: MIC (Table 2). The conditions noted are these: TB302, tobramycin resistant strain, read-out: Minimum Inhibitory Concentration (MIC).
For assay [2], the system named is Pseudomonas aeruginosa TB-121. The assay can be described thus: MIC (Table 2). The settings on record: TB121, tobramycin resistant strain, read-out: Minimum Inhibitory Concentration (MIC).
Assay [3] has as its system Staphylococcus epidermidis TB-775. The assay can be described thus: MIC (Table 2). The conditions noted are these: TB775, tobramycin resistant strain, read-out: Minimum Inhibitory Concentration (MIC).
Assay [4] has as its system Proteus vulgaris TB-615. The assay can be described thus: MIC (Table 2). The conditions noted are these: TB615, tobramycin resistant strain, read-out: Minimum Inhibitory Concentration (MIC).
The test system of assay [5] is Pseudomonas aeruginosa TB-151. As to the kind of experiment: MIC (Table 2). The settings on record: TB151, tobramycin resistant strain, read-out: Minimum Inhibitory Concentration (MIC).
The test system of assay [6] is Proteus vulgaris TB-615. The assay can be described thus: MIC (Table 3). The conditions noted are these: TB615, read-out: Minimum Inhibitory Concentration (MIC).
Assay [7] concerns Pseudomonas aerginosa TB-121. The assay can be described thus: MIC (Table 3). The settings on record: TB121, read-out: Minimum Inhibitory Concentration (MIC).
The subject of assay [8] is Staphylococcus epidermidis TB-775. As to the kind of experiment: MIC (Table 3). The settings on record: TB775, read-out: Minimum Inhibitory Concentration (MIC).
In assay [9] the test system is Pseudomonas aeruginosa TB-151. As to the kind of experiment: MIC (Table 3). The conditions noted are these: TB151, read-out: Minimum Inhibitory Concentration (MIC).

With `NC[C@H]1O[C@H](O[C@H]2[C@H](O)[C@@H](O[C@H]3O[C@H](CO)[C@@H](O)[C@H](N)[C@H]3O)[C@H](NC(=O)C3(O)CNC3)C[C@@H]2N)[C@H](N)C[C@@H]1O` [Comp. (1), 1-N-(3-hydroxyazetidine-3-carbonyl)tobramycin], the MIC in assay [1] is 12.5 µg/mL (≈ 22.1 µM); in assay [2], 25 µg/mL (≈ 44.1 µM); in assay [3], greater than 100 µg/mL; in assay [4], 6.25 µg/mL (≈ 11 µM); in [5], 3.13 µg/mL (≈ 5.52 µM).
The matching figures for `NC[C@H]1O[C@H](O[C@H]2[C@H](O)[C@@H](O[C@H]3O[C@H](CO)[C@@H](O)[C@H](N)[C@H]3O)[C@H](N)C[C@@H]2N)[C@H](O)[C@@H](O)[C@@H]1O` [KM-A, kanamycin A]: 12.5 µg/mL (≈ 25.8 µM), greater than 100 µg/mL, greater than 100 µg/mL, 100 µg/mL (≈ 206 µM) and greater than 100 µg/mL.
On to `NC[C@H]1O[C@H](O[C@H]2[C@H](O)[C@@H](O[C@H]3O[C@H](CO)[C@@H](O)[C@H](N)[C@H]3O)[C@H](NC(=O)C3(O)CNC3)C[C@@H]2N)[C@H](O)[C@@H](O)[C@@H]1O` [Comp. (2), 1-N-(3-hydroxyazetidine-3-carbonyl)kanamycin A], for which the MIC in assay [1] is 6.25 µg/mL (≈ 10.7 µM); in assay [2], 25 µg/mL (≈ 42.8 µM); in assay [3] it was 50 µg/mL (≈ 85.7 µM); in [4], 6.25 µg/mL (≈ 10.7 µM); in assay [5], 6.25 µg/mL (≈ 10.7 µM).
In the case of `NC[C@H]1O[C@H](O[C@H]2[C@H](O)[C@@H](O[C@H]3O[C@H](CO)[C@@H](O)[C@H](N)[C@H]3O)[C@H](N)C[C@@H]2N)[C@H](N)C[C@@H]1O` [TOB, tobramycin], the MIC in [1] is 25 µg/mL (≈ 53.5 µM); in [2], 100 µg/mL (≈ 214 µM); in assay [6] it was 50 µg/mL (≈ 107 µM); in assay [7] it was 25 µg/mL (≈ 53.5 µM); in [3] it was greater than 100 µg/mL; in assay [8], 100 µg/mL (≈ 214 µM). The MIC in assay [4] was found to be 50 µg/mL (≈ 107 µM); in [9] it was 25 µg/mL (≈ 53.5 µM); in assay [5] it was 100 µg/mL (≈ 214 µM).
